{"source": "patent US10604513B2", "about": "“Pyridone derivative comprising heteroatomic ring butane substituent, for treating fibrosis and inflammatory diseases” (SHIJIAZHUANG SAGACITY NEW DRUG DEVELOPMENT CO., LTD., priority 2016, dated 2020)", "key": {"[1]": {"tested_on": "endotoxin (LPS)-induced TNF-α in rat blood", "assay": "Effect of compounds on endotoxin (LPS)-induced TNF-α in rat blood in vitro", "type": "cell-based, Sprague Dawley rats", "conditions": "for inhibition at 500 µM: tested concentration of compound 0.5 Mm (footnote *); for inhibition at 500 µM / inhibition at 100 µM: LPS 100 μg/mL, rat blood, 5 h; for inhibition of TNF-α level induced by LPS (in words): compared with Pirfenidone; for inhibition at 100 µM: tested concentration of compound 0.1 mM", "method": "Main task: evaluation on effect of compounds on endotoxin (LPS)-induced TNF-α in rat blood in vitro\nExperimental purpose: testing effect of compounds on endotoxin (LPS)-induced TNF-α in rat blood in vitro, and evaluate effect of compounds on endotoxin (LPS)-induced TNF-α in rat blood in vitro\nSprague Dawley rats (male, 210-260 g, Shanghai Slac Laboratory Animal CO. LTD) Rat TNF-alpha Quantikine ELISA Kit (R&D, #SRTA00)\nA solution of the compound was prepared (5 mM or 1 mM), 40 μL was added into a 48-well cell culture plate, respectively (the final concentration was 0.5 or 0.1 mM). The rats were hocussed with isoflurane and blood was collected from the abdominal aorta (Heparin anticoagulant). The blood was added into a 48-well cell culture plate (320 μL per well) containing the compounds to be tested. And then the 48-well cell culture plate was incubated at 37° C. After 30 min, the plate was added with 40 μL LPS (the final concentration was 100 μg/mL), and then were incubated at 37° C. after mixed. After 5 h, the 48-well plate was taken out and the blood was transferred into 1.5 mL centrifuge tubes and centrifuged in the centrifugal machine (4,500 rpm, 4° C., 5 min). The upper plasma was separated and kept portions (20 μL per well) into 96-well sample plate, and then sharp-frozen and preserved at refrigerator (−80° C.). The second day, the TNF-α level on the blood samples was tested by using R&D ELISA kits according to the kit specification. The data was analyzed by EXCEL and Prism."}, "[2]": {"tested_on": "SD rat pulmonary fibrosis induced by Bleomycin", "assay": "Efficacy trial in vivo: SD rat pulmonary fibrosis induced by Bleomycin", "conditions": "for improving tissue damage in the area and margin of pulmonary fibrosis lesions: doses per Table 5, FIGS. 1-4; for efficacy compared with the reference compound Pirfenidone: oral, 14 days", "text": "Experimental purpose: test preventive therapeutic effects of compounds on SD rat pulmonary fibrosis induced by Bleomycin\nModel: SD rat pulmonary fibrosis on the left lung; pulmonary fibrosis modelled by injecting Bleomycin into rat trachea\nMolding agent: Bleomycin (BLM)\n1 ? experimental grouping: efficacy trial for twice, besides common modeling group and Pirfenidone group as control reference, tested compounds were divided into […], i.e. model group (Group -1, n=7, Vehicle), control reference drug (group-2, n=7, Pirfenidone); tested compound WX001 group (Group-3, n=7), tested compound WX002 high dosage group (Group-4, n=7), tested compound WX002 low dosage group (Group-5, n=7) (Table 5)\n2 ? Drug administration: Orally administering on the day the model was established, twice a day and administration for 14 day continuously 3 ? Physiological observation of experimental animal: detecting changes in animal weight (test weight before administration every day); detecting animal death rate during test period 4 ? euthanasia of animal after 14 days, formalin was injected into left lung to fix, and test volume and weight of left lung after injection and then test Lung Pathology (Table 6)\nTest Results of Experiment: Test of tissue pathology of left lung: pathological evaluation of H&E dye: 1) pathological changes of left lung terminal bronchiole, 2) pathological changes of left lung pulmonary arteriole; pathological evaluation of Masson Thrichrome dye: 3) area of left lung pulmonary fibrosis, 4) score of left lung pulmonary fibrosis."}}, "data": [{"smiles": "Cc1ccc(=O)n(-c2ccccc2)c1", "note": "[Pirfenidone, reference compound]", "values": [{"measurement": "inhibition at 500 µM", "setting": "[1]", "result": 51.4, "unit": "%"}]}, {"smiles": "CC1(c2ccc(=O)n(-c3ccccc3)c2)COC1", "note": "[WX001]", "values": [{"measurement": "inhibition of TNF-α level induced by LPS (in words)", "setting": "[1]; 0.5 mM", "result": "significant inhibition"}, {"measurement": "inhibition at 500 µM", "setting": "[1]", "result": 86.3, "unit": "%"}, {"measurement": "improving tissue damage in the area and margin of pulmonary fibrosis lesions", "setting": "[2]; oral twice a day for 14 days", "result": "good effect"}]}, {"smiles": "CC1(c2ccc(=O)n(-c3ccsc3)c2)COC1", "note": "[WX002]", "values": [{"measurement": "inhibition of TNF-α level induced by LPS (in words)", "setting": "[1]; 0.1 mM as final concentration", "result": "significant inhibition"}, {"measurement": "inhibition at 100 µM", "setting": "[1]", "result": 74.6, "unit": "%"}, {"measurement": "efficacy compared with the reference compound Pirfenidone", "setting": "[2]; low dose of 50 mpk group", "result": "better efficacy than Pirfenidone"}, {"measurement": "preventing the formation of pulmonary fibrosis", "setting": "[2]; oral twice a day for 14 days, FIG. 5", "result": "good effect"}, {"measurement": "improving tissue damage in the area and margin of pulmonary fibrosis lesions", "setting": "[2]; oral twice a day for 14 days", "result": "good effect"}, {"measurement": "efficacy compared with the reference compound Pirfenidone", "setting": "[2]; same dose of 100 mpk group", "result": "better efficacy than Pirfenidone"}]}, {"smiles": "CC1(c2ccc(=O)n(-c3csc(Cl)c3)c2)COC1", "note": "[WX003]", "values": [{"measurement": "inhibition of TNF-α level induced by LPS (in words)", "setting": "[1]; 0.1 mM as final concentration", "result": "significant inhibition"}, {"measurement": "inhibition at 100 µM", "setting": "[1]", "result": 84.7, "unit": "%"}]}, {"smiles": "Cc1cc(-n2cc(C3(C)COC3)ccc2=O)cs1", "note": "[WX004]", "values": [{"measurement": "inhibition of TNF-α level induced by LPS (in words)", "setting": "[1]; 0.1 mM as final concentration", "result": "significant inhibition"}, {"measurement": "inhibition at 100 µM", "setting": "[1]", "result": 89.5, "unit": "%"}]}, {"smiles": "CC1(c2ccc(=O)n(-c3cscn3)c2)COC1", "note": "[WX005]", "values": [{"measurement": "inhibition at 100 µM", "setting": "[1]", "result": 61.6, "unit": "%"}]}, {"smiles": "O=c1ccc(C2(O)COC2)cn1-c1ccsc1", "note": "[WX009]", "values": [{"measurement": "inhibition at 500 µM", "setting": "[1]", "result": 51.5, "unit": "%"}]}, {"smiles": "O=c1ccc(C2(F)COC2)cn1-c1ccsc1", "note": "[WX011]", "values": [{"measurement": "inhibition of TNF-α level induced by LPS (in words)", "setting": "[1]; 0.1 mM as final concentration", "result": "significant inhibition"}, {"measurement": "inhibition at 100 µM", "setting": "[1]", "result": 78.8, "unit": "%"}]}]}
